The term pIC50 denotes the negative decadic logarithm of the IC50, by convention in mol/L.

IC50 data for 35 compounds are collected here from US20080021026A1, “BENZOTHIOPHENE INHIBITORS OF RHO KINASE” (priority 2006, published 2008).

Experiment [1] has as its target T1, recombinant N-terminal GST-tagged human Rho kinase 1 (ROCK1, amino acids 1-535) (Homo sapiens, UniProt Q13464).
T1 construct: ROCK1, amino acids 1-535; purchased Invitrogen Inc. PV-3691
The experiment can be described thus: In vitro Rho kinase assay (luciferase-based ATP consumption), ROCK1. Type of experiment: biochemical. The method in brief:
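GST-ROCK1 (aa 1-535) at 0.82 μg/ml with 100 μg/ml S6 peptide and 3 µM ATP in Tris pH 7.5 buffer with MgCl2, CaCl2, EGTA, BSA; compound added after reaction start, 2 h at 30 °C. Remaining ATP read by luciferase luminescence; efficacy as percent of H-1152P positive control.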

Experiment [2] has as its target T2, recombinant N-terminal GST-tagged human Rho kinase 2 (ROCK2, amino acids 1-552) (Homo sapiens, UniProt O75116).
T2 construct: ROCK2, amino acids 1-552; purchased Invitrogen Inc. PV3759
As to the kind of experiment: In vitro Rho kinase assay (luciferase-based ATP consumption), ROCK2. Type of experiment: biochemical. The essentials: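 GST-ROCK2 (aa 1-552, 0.82 μg/ml) with 100 μg/ml S6 peptide and 3 µM ATP in Tris pH 7.5 buffer with MgCl2/CaCl2/EGTA/BSA, compound added just after reaction start, 2 h at 30 °C. Remaining ATP read by luciferase luminescence. Efficacy expressed as percentage of H-1152P positive control.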

The mark [3] stands for this setting: recombinant GST-tagged human ROCK1, luciferase-based ATP consumption, read-out: ROCK1 IC50.
Where [4] appears, read: recombinant GST-tagged human ROCK2, luciferase-based ATP consumption, read-out: ROCK2 IC50.

pIC50: −log10 of the molar value. Like-named read-outs stand apart in the source and are kept apart here. A value given as a limit tells only on which side of the number the result lay.

T1 sequence (Q13464 1-535): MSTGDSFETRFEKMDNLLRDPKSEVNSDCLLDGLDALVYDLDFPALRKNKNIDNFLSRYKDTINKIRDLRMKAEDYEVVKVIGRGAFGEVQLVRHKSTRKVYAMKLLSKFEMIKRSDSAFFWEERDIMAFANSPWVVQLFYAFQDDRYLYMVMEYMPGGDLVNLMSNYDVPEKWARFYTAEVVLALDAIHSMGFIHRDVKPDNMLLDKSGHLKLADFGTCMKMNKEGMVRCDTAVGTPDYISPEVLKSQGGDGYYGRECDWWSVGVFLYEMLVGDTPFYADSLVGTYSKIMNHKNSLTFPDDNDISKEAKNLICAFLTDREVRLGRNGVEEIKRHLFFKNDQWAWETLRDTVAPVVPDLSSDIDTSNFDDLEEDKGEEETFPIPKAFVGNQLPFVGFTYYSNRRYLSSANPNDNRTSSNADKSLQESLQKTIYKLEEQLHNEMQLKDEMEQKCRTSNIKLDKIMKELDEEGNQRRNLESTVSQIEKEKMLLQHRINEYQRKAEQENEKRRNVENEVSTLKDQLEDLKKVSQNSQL
T2 sequence (O75116 1-552): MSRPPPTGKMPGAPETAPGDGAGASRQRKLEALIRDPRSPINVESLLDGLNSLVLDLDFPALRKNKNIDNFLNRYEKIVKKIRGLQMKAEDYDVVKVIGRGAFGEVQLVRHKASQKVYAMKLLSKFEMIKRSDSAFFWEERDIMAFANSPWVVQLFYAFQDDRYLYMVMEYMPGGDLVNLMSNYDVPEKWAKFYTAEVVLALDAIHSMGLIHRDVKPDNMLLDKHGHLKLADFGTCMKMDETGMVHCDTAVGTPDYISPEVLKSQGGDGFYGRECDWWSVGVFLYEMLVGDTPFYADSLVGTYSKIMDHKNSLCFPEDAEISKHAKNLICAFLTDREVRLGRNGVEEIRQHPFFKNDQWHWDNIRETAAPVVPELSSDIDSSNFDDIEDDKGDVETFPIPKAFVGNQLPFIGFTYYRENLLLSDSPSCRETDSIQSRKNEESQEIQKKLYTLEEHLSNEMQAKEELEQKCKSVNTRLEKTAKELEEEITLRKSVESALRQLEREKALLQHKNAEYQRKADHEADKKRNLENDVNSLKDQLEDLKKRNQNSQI

Turning to `CCOc1ccccc1C(=O)NCc1ccc2sc(-c3ccnc(N)n3)c(C)c2c1` [Example 174, CCOc1ccccc1C(═O)NCc2ccc3sc(c(C)c3c2)-c4ccnc(N)n4], the negative logarithm of the IC50 (pIC50) in experiment [1] (setting [3]) and in experiment [2] (setting [4]) was < 5.30 each time.
For the compound `COC(=O)c1ccc(C(=O)NCc2ccc3sc(-c4ccnc(N)n4)c(C)c3c2)cc1` [Example 209, COC(═O)c1ccc(cc1)C(═O)NCc2ccc3sc(c(C)c3c2)-c4ccnc(N)n4], the pIC50 in experiment [1] (setting [3]) and in experiment [2] (setting [4]) was > 5.30 each time.
Consider `Cc1c(-c2ccnc(N)n2)sc2ccccc12` [Example 14, 4-(3-Methylbenzo[b]thiophen-2-yl)pyrimidin-2-amine], for which the pIC50 in experiment [1] (setting [3]) and in experiment [2] (setting [4]) was > 5.30 each time.
As for `Cc1c(-c2ccnc(N)n2)sc2ccc(CNC(=O)c3c(F)c(F)c(F)c(F)c3F)cc12` [Example 276, Cc1c(sc2ccc(CNC(═O)c3c(F)c(F)c(F)c(F)c3F)cc12)-c4ccnc(N)n4], the negative logarithm of the IC50 (pIC50) in experiment [1] (setting [3]) and in experiment [2] (setting [4]) was > 5.30 throughout.
As for `Cc1c(-c2ccnc(N)n2)sc2ccc(CNC(=O)c3c(F)cccc3Cl)cc12` [Example 195, Cc1c(sc2ccc(CNC(═O)c3c(F)cccc3Cl)cc12)-c4ccnc(N)n4], the pIC50 in experiment [1] (ROCK1 IC50, recombinant GST-tagged human ROCK1, luciferase-based ATP consumption) was > 5.30; in experiment [2] (ROCK2 IC50, recombinant GST-tagged human ROCK2, luciferase-based ATP consumption) it was > 5.30.
For the compound `Cc1c(-c2ccnc(N)n2)sc2ccc(-c3ccccc3)cc12` [Example 88, 4-(3-Methyl-5-phenylbenzo[b]thiophen-2-yl)pyrimidin-2-amine], the pIC50 in experiment [1] (setting [3]) was > 5.30; in experiment [2] (setting [4]) it was < 5.30.
As for `Cc1c(-c2ccnc(N)n2)sc2ccc(Cc3cccc(C#N)c3)cc12` [Example 40, 3-((2-(2-Aminopyrimidin-4-yl)-3-methylbenzo[b]thiophen-5-yl)methyl)benzonitrile], the negative logarithm of the IC50 (pIC50) in experiment [1] (setting [3]) and in experiment [2] (setting [4]) was > 5.30 throughout.
`COc1ccc(C=CC(=O)NCc2ccc3sc(-c4ccnc(N)n4)c(C)c3c2)cc1O` [Example 256, COc1ccc(C═CC(═O)NCc2ccc3sc(c(C)c3c2)-c4ccnc(N)n4)cc1O]: the pIC50 in experiment [1] (setting [3]) and in experiment [2] (setting [4]) was > 5.30 each time.
With `Cc1ccccc1OCC(=O)NCc1ccc2sc(-c3ccnc(N)n3)c(C)c2c1` [Example 175, Cc1ccccc1OCC(═O)NCc2ccc3sc(c(C)c3c2)-c4ccnc(N)n4], the negative-log IC50 (pIC50) is < 5.30 in experiment [1] (setting [3]) and > 5.30 in experiment [2] (setting [4]).
For `Cc1c(-c2ccnc3[nH]ccc23)sc2ccc(Cl)cc12` [Example 6, 4-(5-Chloro-3-methylbenzo[b]thiophen-2-yl)-1H-pyrrolo[2,3-b]pyridine] the same measures were < 5.30 and < 5.30.
The like results for `Cc1c(-c2ccnc(N)n2)sc2ccc(CNC(=O)c3ccc(O)cc3O)cc12` [Example 144, Cc1c(sc2ccc(CNC(═O)c3ccc(O)cc3O)cc12)-c4ccnc(N)n4] were, in that order, < 5.30 and > 5.30.
As to `Cc1c(-c2ccnc(N)n2)sc2ccc(CNC(=O)C(Cc3ccc(O)cc3)NC(=O)OC(C)(C)C)cc12` (stereo not shown) [Example 328, Cc1c(sc2ccc(CNC(═O)C(Cc3ccc(O)cc3)NC(═O)OC(C)(C)C)cc12)c4ccnc(N)n4], the pIC50 in experiment [1] (setting [3]) and in experiment [2] (setting [4]) was > 5.30 each time.
Regarding `Cc1c(-c2ccnc(N)n2)sc2ccc(CNC(=O)c3cccs3)cc12` [Example 34, N-((2-(2-Aminopyrimidin-4-yl)-3-methylbenzo[b]thiophen-5-yl)methyl)thiophene-2-carboxamide], the negative logarithm of the IC50 (pIC50) in experiment [1] (setting [3]) and in experiment [2] (setting [4]) was > 5.30 each time.
In the case of `Cc1c(-c2ccnc(N)n2)sc2ccc(CNC(=O)C3CCc4ccccc4C3)cc12` (stereo not shown) [Example 199, Cc1c(sc2ccc(CNC(═O)C3CCc4ccccc4C3)cc12)-c5ccnc(N)n5], the pIC50 is < 5.30 in experiment [1] (setting [3]) and > 5.30 in experiment [2] (setting [4]).
Regarding `Cc1c(-c2ccnc(N)n2)sc2ccc(CNC(=O)c3ccccc3)cc12` [Example 108, Cc1c(sc2ccc(CNC(═O)c3ccccc3)cc12)-c4ccnc(N)n4], the negative logarithm of the IC50 (pIC50) in experiment [1] (setting [3]) is > 5.30; in experiment [2] (setting [4]), < 5.30.
Take `Cc1c(-c2ccnc(N)n2)oc2ccccc12` [Example 3, 4-(3-Methylbenzofuran-2-yl)pyrimidin-2-amine]: the pIC50 in experiment [1] (setting [3]) and in experiment [2] (setting [4]) was > 5.30 each time.
For `Cc1c(-c2ccnc(N)n2)sc2ccc(CNC(=O)c3csc4ccccc34)cc12` [Example 201, Cc1c(sc2ccc(CNC(═O)c3csc4ccccc34)cc12)-c5ccnc(N)n5], the results for the pIC50 in experiment [1] (setting [3]) and in experiment [2] (setting [4]) were < 5.30 and > 5.30, respectively.
For the compound `Cc1c(-c2ccnc(N)n2)sc2ccc(Nc3cccc(NC(=O)c4ccc(C(=O)O)cc4)c3)cc12` [Example 63, 4-(3-(2-(2-Aminopyrimidin-4-yl)-3-methylbenzo[b]thiophen-5-ylamino)phenylcarbamoyl)benzoic acid], the negative-log IC50 (pIC50) in experiment [1] (setting [3]) and in experiment [2] (setting [4]) was > 5.30 in each case.
For the compound `Cc1c(-c2ccnc(N)n2)sc2ccc(CNC(=O)c3ccc(C(C)(C)C)cc3)cc12` [Example 204, Cc1c(sc2ccc(CNC(═O)c3ccc(cc3)C(C)(C)C)cc12)-c4ccnc(N)n4], the negative-log IC50 (pIC50) in experiment [1] (setting [3]) and in experiment [2] (setting [4]) was > 5.30 in each case.
For the compound `Cc1c(-c2ccnc(N)n2)sc2ccc(CNC(=O)C=Cc3ccc4c(c3)OCO4)cc12` [Example 249, Cc1c(sc2ccc(CNC(═O)C═Cc3ccc4OCOc4c3)cc12)-c5ccnc(N)n5], the pIC50 in experiment [1] (setting [3]) is < 5.30; in experiment [2] (setting [4]), > 5.30.
Take `Cc1c(-c2ccnc(N)n2)sc2ccc(CNC(=O)c3cccc(Cl)c3[N+](=O)[O-])cc12` [Example 264, Cc1c(sc2ccc(CNC(═O)c3cccc(Cl)c3[N+]([O−])═O)cc12)-c4ccnc(N)n4]: the pIC50 in experiment [1] (setting [3]) is < 5.30; in experiment [2] (setting [4]), > 5.30.
For `Cc1c(-c2ccnc(N)n2)sc2ccc(Cc3cccc(OCCN(C)C)c3)cc12` [Example 30, 4-(5-(3-(2-(Dimethylamino)ethoxy)benzyl)-3-methylbenzo[b]thiophen-2-yl)pyrimidin-2-amine] the same measures were > 5.30 and > 5.30.
Turning to `COc1cc(OC)cc(C(=O)NCc2ccc3sc(-c4ccnc(N)n4)c(C)c3c2)c1` [Example 221, COc1cc(OC)cc(c1)C(═O)NCc2ccc3sc(c(C)c3c2)-c4ccnc(N)n4], the negative logarithm of the IC50 (pIC50) in experiment [1] (setting [3]) is < 5.30; in experiment [2] (setting [4]) it was > 5.30.
Take `CCOc1ccc2ccccc2c1C(=O)NCc1ccc2sc(-c3ccnc(N)n3)c(C)c2c1` [Example 291, CCOc1ccc2ccccc2c1C(═O)NCc3ccc4sc(c(C)c4c3)-c5ccnc(N)n5]: the pIC50 was < 5.30 in experiment [1] (setting [3]) and > 5.30 in experiment [2] (setting [4]).
For the compound `Cc1c(-c2ccnc(N)n2)sc2ccc(Br)cc12` [Example 13, 4-(5-Bromo-3-methylbenzo[b]thiophen-2-yl)pyrimidin-2-amine], the negative logarithm of the IC50 (pIC50) in experiment [1] (setting [3]) and in experiment [2] (setting [4]) was > 5.30 each time.
As for `Cc1c(-c2ccnc(N)n2)sc2ccc(Nc3ccccn3)cc12` [Example 64, 4-(3-Methyl-5-(pyridin-2-ylamino)benzo[b]thiophen-2-yl)pyrimidin-2-amine], the pIC50 in experiment [1] (setting [3]) and in experiment [2] (setting [4]) was > 5.30 each time.
Regarding `Cc1c(-c2ccnc(N)n2)sc2ccc(CNC(=O)c3cc(Cl)ccn3)cc12` [Example 151, Cc1c(sc2ccc(CNC(═O)c3cc(Cl)ccn3)cc12)-c4ccnc(N)n4], the negative logarithm of the IC50 (pIC50) in experiment [1] (setting [3]) and in experiment [2] (setting [4]) was > 5.30 each time.
For `Cc1cccc(C(=O)NCc2ccc3sc(-c4ccnc(N)n4)c(C)c3c2)c1` [Example 118, Cc1cccc(c1)C(═O)NCc2ccc3sc(c(C)c3c2)-c4ccnc(N)n4], the negative-log IC50 (pIC50) in experiment [1] (setting [3]) and in experiment [2] (setting [4]) was < 5.30 throughout.
Turning to `CCCCCc1ccc(C(=O)NCc2ccc3sc(-c4ccnc(N)n4)c(C)c3c2)cc1` [Example 251, CCCCCc1ccc(cc1)C(═O)NCc2ccc3sc(c(C)c3c2)-c4ccnc(N)n4], the negative-log IC50 (pIC50) was > 5.30 in experiment [1] (setting [3]) and < 5.30 in experiment [2] (setting [4]).
Consider `Cc1c(-c2ccnc(N)n2)sc2ccc(CNC(=O)c3ccc(Br)cc3)cc12` [Example 263, Cc1c(sc2ccc(CNC(═O)c3ccc(Br)cc3)cc12)-c4ccnc(N)n4], for which the negative-log IC50 (pIC50) in experiment [1] (setting [3]) is < 5.30; in experiment [2] (setting [4]), > 5.30.
As to `Cc1ccc(C(=O)CCC(=O)NCc2ccc3sc(-c4ccnc(N)n4)c(C)c3c2)cc1` [Example 250, Cc1ccc(cc1)C(═O)CCC(═O)NCc2ccc3sc(c(C)c3c2)-c4ccnc(N)n4], the pIC50 in experiment [1] (setting [3]) is < 5.30; in experiment [2] (setting [4]), > 5.30.
With `COc1ccc(Cc2ccc3sc(-c4ccnc(N)n4)c(C)c3c2)cc1` [Example 25, 4-(5-(4-Methoxybenzyl)-3-methylbenzo[b]thiophen-2-yl)pyrimidin-2-amine], the pIC50 in experiment [1] (setting [3]) and in experiment [2] (setting [4]) was < 5.30 throughout.
As for `COc1cccc(C(=O)NCc2ccc3sc(-c4ccnc(N)n4)c(C)c3c2)c1OC` [Example 222, COc1cccc(C(═O)NCc2ccc3sc(c(C)c3c2)-c4ccnc(N)n4)c1OC], the pIC50 is < 5.30 in experiment [1] (setting [3]) and > 5.30 in experiment [2] (setting [4]).
On to `COc1ccc(Cl)cc1C(=O)NCc1ccc2sc(-c3ccnc(N)n3)c(C)c2c1` [Example 232, COc1ccc(Cl)cc1C(═O)NCc2ccc3sc(c(C)c3c2)-c4ccnc(N)n4], for which the negative-log IC50 (pIC50) is < 5.30 in experiment [1] (setting [3]) and > 5.30 in experiment [2] (setting [4]).
For `Cc1c(-c2ccnc(N)n2)sc2ccc(CNC(=O)C=Cc3cccc(O)c3)cc12` [Example 163, Cc1c(sc2ccc(CNC(═O)C═Cc3cccc(O)c3)cc12)-c4ccnc(N)n4] the same measures were > 5.30 and > 5.30.
